Results as given in ChEMBL document CHEMBL1129759, “A comparative study of the solvolysis reactivity, regioselectivity, and stereochemistry of the duocarmycin a and sa alkylation subunits” (Bioorg Med Chem Lett, 1996).

Tests used:
[1] = Half-life […] at pH 3.0; format: ADME, cell-free
[2] = tested on: L1210; experiment: Compound was tested for its anti tumor activity against L1210 cells; format: functional, cell-based; settings: Mus musculus
[3] = tested on: L1210; experiment: The compound was tested for its anti tumor activity against L1210 cells; format: functional, cell-based; settings: Mus musculus

Structure (SMILES) | half-life [1] [h] | IC50 [2] [nM] | IC50 [3] [nM]
COC(=O)c1cc2c([nH]1)C(=O)C=C1N(C(=O)OC(C)(C)C)C[C@H]3C[C@]123 | 177 | 6 | –
Cc1c[nH]c2c1[C@@]13C[C@@H]1CN(C(=O)OC(C)(C)C)C3=CC2=O | 37 | – | 330
COC(=O)[C@]1(C)N=C2C(=O)C=C3N(C(=O)OC(C)(C)C)C[C@H]4C[C@@]34C2=C1O | 11 | 2000 | –
